The source made the active and inactive calls. The calls are words filed in the database; no cut-off is given here.
Assays:
SR [1] = experiment: Growth inhibition of human SR cells after 48 hrs by sulforhodamine B assay; format: functional
NCI-H226 [2] = experiment: Growth inhibition of human NCI-H226 cells after 48 hrs by sulforhodamine B assay; format: functional; details: NCI-H226, 48 h
NCI-H522 [3] = experiment: Growth inhibition of human NCI-H522 cells after 48 hrs by sulforhodamine B assay; format: functional; details: NCI-H522, 48 h
HCT-116 [4] = experiment: Growth inhibition of human HCT116 cells after 48 hrs by sulforhodamine B assay; format: functional; details: HCT-116, 48 h
HCT-15 [5] = experiment: Growth inhibition of human HCT15 cells after 48 hrs by sulforhodamine B assay; format: functional; details: HCT-15, 48 h
HT-29 = experiment: Growth inhibition of human HT-29 cells after 48 hrs by sulforhodamine B assay; format: functional; details: HT-29, 48 h
SW-620 = experiment: Growth inhibition of human SW620 cells after 48 hrs by sulforhodamine B assay; format: functional; details: SW-620, 48 h
SF-295 = experiment: Growth inhibition of human SF295 cells after 48 hrs by sulforhodamine B assay; format: functional; details: SF-295, 48 h
U-251 = experiment: Growth inhibition of human U251 cells after 48 hrs by sulforhodamine B assay; format: functional; details: U-251, 48 h
LOX IMVI = experiment: Growth inhibition of human LOXIMVI cells after 48 hrs by sulforhodamine B assay; format: functional
MDA-MB-435 [6] = experiment: Growth inhibition of human MDA-MB-435 cells after 48 hrs by sulforhodamine B assay; format: functional; details: MDA-MB-435, 48 h
IGROV-1 [7] = experiment: Growth inhibition of human IGROV1 cells after 48 hrs by sulforhodamine B assay; format: functional; details: IGROV-1, 48 h
OVCAR-3 = experiment: Growth inhibition of human OVCAR-3 cells after 48 hrs by sulforhodamine B assay; format: functional; details: OVCAR-3, 48 h
OVCAR-4 [8] = experiment: Growth inhibition of human OVCAR4 cells after 48 hrs by sulforhodamine B assay; format: functional; details: OVCAR-4, 48 h
RXF 393 [9] = experiment: Growth inhibition of human RXF393 cells after 48 hrs by sulforhodamine B assay; format: functional; details: RXF 393, 48 h
SN12C [10] = experiment: Growth inhibition of human SN12C cells after 48 hrs by sulforhodamine B assay; format: functional
MCF7 = experiment: Growth inhibition of human MCF7 cells after 48 hrs by sulforhodamine B assay; format: functional; details: MCF7, 48 h
BT-549 = experiment: Growth inhibition of human BT549 cells after 48 hrs by sulforhodamine B assay; format: functional; details: BT-549, 48 h
T47D [11] = experiment: Growth inhibition of human T47D cells after 48 hrs by sulforhodamine B assay; format: functional
SR [12] = experiment: Growth inhibition of human SR cells at 1 uM after 48 hrs by sulforhodamine B assay; format: functional, cell-based
CCRF-CEM = experiment: Growth inhibition of human CCRF-CEM cells at 1 uM after 48 hrs by sulforhodamine B assay; format: functional, cell-based
MOLT-4 = experiment: Growth inhibition of human MOLT4 cells at 1 uM after 48 hrs by sulforhodamine B assay; format: functional, cell-based
HOP-92 = experiment: Growth inhibition of human HOP92 cells at 1 uM after 48 hrs by sulforhodamine B assay; format: functional, cell-based
NCI-H226 [13] = experiment: Growth inhibition of human NCI-H226 cells at 1 uM after 48 hrs by sulforhodamine B assay; format: functional, cell-based
NCI-H460 = experiment: Growth inhibition of human NCI-H460 cells at 1 uM after 48 hrs by sulforhodamine B assay; format: functional, cell-based
NCI-H522 [14] = experiment: Growth inhibition of human NCI-H522 cells at 1 uM after 48 hrs by sulforhodamine B assay; format: functional, cell-based
HOP-62 = experiment: Growth inhibition of human HOP62 cells at 1 uM after 48 hrs by sulforhodamine B assay; format: functional, cell-based
NCI-H322M = experiment: Growth inhibition of human […] cells at 1 uM after 48 hrs by sulforhodamine B assay; format: functional, cell-based
COLO 205 = experiment: Growth inhibition of human COLO205 cells at 1 uM after 48 hrs by sulforhodamine B assay; format: functional, cell-based
HCT-116 [15] = experiment: Growth inhibition of human HCT116 cells at 1 uM after 48 hrs by sulforhodamine B assay; format: functional, cell-based
HCT-15 [16] = experiment: Growth inhibition of human HCT15 cells at 1 uM after 48 hrs by sulforhodamine B assay; format: functional, cell-based
KM12 = experiment: Growth inhibition of human KM12 cells at 1 uM after 48 hrs by sulforhodamine B assay; format: functional, cell-based
SF-539 = experiment: Growth inhibition of human SF539 cells at 1 uM after 48 hrs by sulforhodamine B assay; format: functional, cell-based
SF-268 = experiment: Growth inhibition of human SF268 cells at 1 uM after 48 hrs by sulforhodamine B assay; format: functional, cell-based
SF530 = experiment: Growth inhibition of human SF530 cells at 1 uM after 48 hrs by sulforhodamine B assay; format: functional, cell-based
Malme-3M = experiment: Growth inhibition of human MALME-3M cells at 1 uM after 48 hrs by sulforhodamine B assay; format: functional, cell-based
MDA-MB-435 [17] = experiment: Growth inhibition of human MDA-MB-435 cells at 1 uM after 48 hrs by sulforhodamine B assay; format: functional, cell-based
IGROV-1 [18] = experiment: Growth inhibition of human IGROV1 cells at 1 uM after 48 hrs by sulforhodamine B assay; format: functional, cell-based
OVCAR-4 [19] = experiment: Growth inhibition of human OVCAR4 cells at 1 uM after 48 hrs by sulforhodamine B assay; format: functional, cell-based
CAKI-1 = experiment: Growth inhibition of human Caki1 cells at 1 uM after 48 hrs by sulforhodamine B assay; format: functional, cell-based
RXF 393 [20] = experiment: Growth inhibition of human RXF393 cells at 1 uM after 48 hrs by sulforhodamine B assay; format: functional, cell-based
SN12C [21] = experiment: Growth inhibition of human SN12C cells at 1 uM after 48 hrs by sulforhodamine B assay; format: functional, cell-based
TK-10 = experiment: Growth inhibition of human TK10 cells at 1 uM after 48 hrs by sulforhodamine B assay; format: functional, cell-based
UO-31 = experiment: Growth inhibition of human UO31 cells at 1 uM after 48 hrs by sulforhodamine B assay; format: functional, cell-based
DU-145 = experiment: Growth inhibition of human DU145 cells at 1 uM after 48 hrs by sulforhodamine B assay; format: functional, cell-based
T47D [22] = experiment: Growth inhibition of human T47D cells at 1 uM after 48 hrs by sulforhodamine B assay; format: functional, cell-based
Hs-578T = experiment: Growth inhibition of human Hs 578T cells at 1 uM after 48 hrs by sulforhodamine B assay; format: functional, cell-based
[23] = read-out: LC50 (the source's name)

## Nc1nc(N)c2c(n1)NC(c1ccccc1)C1CCc3ccccc3C1=N2 (stereo unspecified)
SR [1]
  GI50: 4.52 µM
  LC50: > 100 µM
NCI-H226 [2]
  GI50: 5.96 µM
  LC50: > 100 µM
NCI-H522 [3]
  GI50: 4.53 µM
  LC50: 65.4 µM
HCT-116 [4]
  GI50: 2.97 µM
  LC50: 38 µM
HCT-15 [5]
  GI50: 4.06 µM
  LC50: 48.8 µM
HT-29
  GI50: 3.66 µM
HT-29; [23]
  CC50: 38 µM
SW-620
  GI50: 6.3 µM
  LC50: 53.3 µM
SF-295
  GI50: 1.69 µM
  LC50 (50% lethal concentration): 34.4 µM
U-251
  GI50: 4.65 µM
  LC50: 44 µM
LOX IMVI
  GI50: 3.79 µM
  LC50: 40.6 µM
MDA-MB-435 [6]
  GI50: 2.93 µM
  LC50 (concentration killing 50% of cells): 39.9 µM
IGROV-1 [7]
  GI50: 4.45 µM
  LC50 (concentration killing 50% of cells): 62.3 µM
OVCAR-3
  GI50: 3.48 µM
  LC50 (lethal concentration, 50% cell kill): 39.4 µM
OVCAR-4 [8]
  GI50: 3.06 µM
  LC50 (50% lethal concentration): 62.3 µM
RXF 393 [9]
  GI50: 4.89 µM
  LC50 (50% lethal concentration): 66.7 µM
SN12C [10]
  GI50: 7.33 µM
SN12C [10]; [23]
  CC50: 50.8 µM
MCF7
  GI50: 3.25 µM
  LC50: 46.7 µM
BT-549
  GI50: 5.42 µM
BT-549; [23]
  CC50: 47.9 µM
T47D [11]
  GI50: 4.57 µM
T47D [11]; [23]
  CC50: > 100 µM
SR [12]
  growth inhibition (GI): inactive
CCRF-CEM
  growth inhibition (GI): inactive
MOLT-4
  growth inhibition (GI): inactive
HOP-92
  growth inhibition (GI): inactive
NCI-H226 [13]
  growth inhibition (GI): inactive
NCI-H460
  growth inhibition (GI): inactive
NCI-H522 [14]
  growth inhibition (GI): inactive
HOP-62
  growth inhibition (GI): inactive
NCI-H322M
  growth inhibition (GI): inactive
COLO 205
  growth inhibition (GI): inactive
HCT-116 [15]
  growth inhibition (GI): inactive
HCT-15 [16]
  growth inhibition (GI): inactive
KM12
  growth inhibition (GI): inactive
SF-539
  growth inhibition (GI): inactive
SF-268
  growth inhibition (GI): inactive
SF530
  growth inhibition (GI): inactive
Malme-3M
  growth inhibition (GI): inactive
MDA-MB-435 [17]
  growth inhibition (GI): inactive
IGROV-1 [18]
  growth inhibition (GI): inactive
OVCAR-4 [19]
  growth inhibition (GI): inactive
CAKI-1
  growth inhibition (GI): inactive
RXF 393 [20]
  growth inhibition (GI): inactive
SN12C [21]
  growth inhibition (GI): inactive
TK-10
  growth inhibition (GI): inactive
UO-31
  growth inhibition (GI): inactive
DU-145
  growth inhibition (GI): inactive
T47D [22]
  growth inhibition (GI): inactive
Hs-578T
  growth inhibition (GI): inactive

From ChEMBL document CHEMBL1177848, “Synthesis of novel 6,6a,7,8-tetrahydro-5H-naphtho[1,2-e]pyrimido[4,5-b][1,4]diazepines under microwave irradiation as potential anti-tumor agents” (2010)
